Drawing on PubChem BioAssay AID1963984 (Molecular Pharmacology Branch, DTP, NCI, 2024), this text covers viability, T/C for four molecules.

SMILES strings stand for the structures.
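Further: spheroids exposed to agents for seven days before readout; percent viability relative to DMSO vehicle control taken as 100%.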

One test relates to 233499-124-R-J3-PDC spheroids with HUVEC/MSC, viability. The test can be described thus: Anticancer human tumor 233499-124-R-J3-PDC patient-derived colon adenocarcinoma cell line growth inhibition [PI3K]. Conditions: second compound 0.316 µM; first compound 1 µM; active compounds read low. An outline of the steps:
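Targeted small molecules plus PI3K inhibitors, half-log dose series from Cmax (default top 10 microM), were applied to heterotypic spheroids of cancer cells with HUVEC and MSCs. Viability indicated growth inhibition.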
For `C#Cc1c(F)ccc2cc(O)cc(-c3ncc4c(N5CC6CCC(C5)N6)nc(OCC56CCCN5CC(F)C6)nc4c3F)c12` (configuration not stated) + CC(Nc1ncnc2nc[nH]c12)c1cc2cccc(Cl)c2c(=O)n1-c1ccccc1, the viability, T/C is 90.6%.

For `C=CC(=O)N1CCN(c2nc(=O)n(-c3c(C)ccnc3C(C)C)c3nc(-c4c(O)cccc4F)c(F)cc23)C(C)C1` (configuration not stated) + CC(Nc1ncnc2nc[nH]c12)c1cc2cccc(Cl)c2c(=O)n1-c1ccccc1, the viability, T/C was 88.8%.

As for `CC(Cn1ccc(-c2ccc(C#N)c(Cl)c2)n1)NC(=O)c1cc(C(C)O)[nH]n1` (configuration not stated) + CC(Nc1ncnc2nc[nH]c12)c1cc2cccc(Cl)c2c(=O)n1-c1ccccc1, the viability, T/C was 99.6%.

On to `CC1(C)CCC(Nc2ncc(C(F)(F)F)c(-c3c[nH]c4c(P(C)(C)=O)c(C#N)ccc34)n2)CN1` (configuration not stated) + CC(Nc1ncnc2nc[nH]c12)c1cc2cccc(Cl)c2c(=O)n1-c1ccccc1, for which the viability, T/C is 32.2%.

The same test, now with this note: second compound 0.316 µM; first compound 3.16 µM; active compounds read low.
For the molecule `C#Cc1c(F)ccc2cc(O)cc(-c3ncc4c(N5CC6CCC(C5)N6)nc(OCC56CCCN5CC(F)C6)nc4c3F)c12` (configuration not stated) + CC(Nc1ncnc2nc[nH]c12)c1cc2cccc(Cl)c2c(=O)n1-c1ccccc1, the viability, T/C is 87.9%.

Consider `C=CC(=O)N1CCN(c2nc(=O)n(-c3c(C)ccnc3C(C)C)c3nc(-c4c(O)cccc4F)c(F)cc23)C(C)C1` (configuration not stated) + CC(Nc1ncnc2nc[nH]c12)c1cc2cccc(Cl)c2c(=O)n1-c1ccccc1, for which the viability, T/C is 90%.

Turning to `CC(Cn1ccc(-c2ccc(C#N)c(Cl)c2)n1)NC(=O)c1cc(C(C)O)[nH]n1` (configuration not stated) + CC(Nc1ncnc2nc[nH]c12)c1cc2cccc(Cl)c2c(=O)n1-c1ccccc1, the viability, T/C was 100%.

Regarding `CC1(C)CCC(Nc2ncc(C(F)(F)F)c(-c3c[nH]c4c(P(C)(C)=O)c(C#N)ccc34)n2)CN1` (configuration not stated) + CC(Nc1ncnc2nc[nH]c12)c1cc2cccc(Cl)c2c(=O)n1-c1ccccc1, the viability, T/C was 34%.

The same test, now with this note: second compound 0.316 µM; first compound 10 µM; active compounds read low.
In the case of `C#Cc1c(F)ccc2cc(O)cc(-c3ncc4c(N5CC6CCC(C5)N6)nc(OCC56CCCN5CC(F)C6)nc4c3F)c12` (configuration not stated) + CC(Nc1ncnc2nc[nH]c12)c1cc2cccc(Cl)c2c(=O)n1-c1ccccc1, the viability, T/C was 69.7%.

On to `C=CC(=O)N1CCN(c2nc(=O)n(-c3c(C)ccnc3C(C)C)c3nc(-c4c(O)cccc4F)c(F)cc23)C(C)C1` (configuration not stated) + CC(Nc1ncnc2nc[nH]c12)c1cc2cccc(Cl)c2c(=O)n1-c1ccccc1, for which the viability, T/C is 82.3%.

In the case of `CC(Cn1ccc(-c2ccc(C#N)c(Cl)c2)n1)NC(=O)c1cc(C(C)O)[nH]n1` (configuration not stated) + CC(Nc1ncnc2nc[nH]c12)c1cc2cccc(Cl)c2c(=O)n1-c1ccccc1, the viability, T/C was 101%.

Consider `CC1(C)CCC(Nc2ncc(C(F)(F)F)c(-c3c[nH]c4c(P(C)(C)=O)c(C#N)ccc34)n2)CN1` (configuration not stated) + CC(Nc1ncnc2nc[nH]c12)c1cc2cccc(Cl)c2c(=O)n1-c1ccccc1, for which the viability, T/C is 10.2%.

The test is the same for the next values; noted with them: second compound 1 µM; first compound 0.0316 µM; active compounds read low.
Regarding `C#Cc1c(F)ccc2cc(O)cc(-c3ncc4c(N5CC6CCC(C5)N6)nc(OCC56CCCN5CC(F)C6)nc4c3F)c12` (configuration not stated) + CC(Nc1ncnc2nc[nH]c12)c1cc2cccc(Cl)c2c(=O)n1-c1ccccc1, the viability, T/C is 102%.

As for `C=CC(=O)N1CCN(c2nc(=O)n(-c3c(C)ccnc3C(C)C)c3nc(-c4c(O)cccc4F)c(F)cc23)C(C)C1` (configuration not stated) + CC(Nc1ncnc2nc[nH]c12)c1cc2cccc(Cl)c2c(=O)n1-c1ccccc1, the viability, T/C is 96.6%.

In the case of `CC(Cn1ccc(-c2ccc(C#N)c(Cl)c2)n1)NC(=O)c1cc(C(C)O)[nH]n1` (configuration not stated) + CC(Nc1ncnc2nc[nH]c12)c1cc2cccc(Cl)c2c(=O)n1-c1ccccc1, the viability, T/C is 96.2%.

With `CC1(C)CCC(Nc2ncc(C(F)(F)F)c(-c3c[nH]c4c(P(C)(C)=O)c(C#N)ccc34)n2)CN1` (configuration not stated) + CC(Nc1ncnc2nc[nH]c12)c1cc2cccc(Cl)c2c(=O)n1-c1ccccc1, the viability, T/C was 81.8%.

The same test, now with this note: second compound 1 µM; first compound 0.1 µM; active compounds read low.
Consider `C#Cc1c(F)ccc2cc(O)cc(-c3ncc4c(N5CC6CCC(C5)N6)nc(OCC56CCCN5CC(F)C6)nc4c3F)c12` (configuration not stated) + CC(Nc1ncnc2nc[nH]c12)c1cc2cccc(Cl)c2c(=O)n1-c1ccccc1, for which the viability, T/C was 102%.

Take `C=CC(=O)N1CCN(c2nc(=O)n(-c3c(C)ccnc3C(C)C)c3nc(-c4c(O)cccc4F)c(F)cc23)C(C)C1` (configuration not stated) + CC(Nc1ncnc2nc[nH]c12)c1cc2cccc(Cl)c2c(=O)n1-c1ccccc1: the viability, T/C is 89.4%.

Consider `CC(Cn1ccc(-c2ccc(C#N)c(Cl)c2)n1)NC(=O)c1cc(C(C)O)[nH]n1` (configuration not stated) + CC(Nc1ncnc2nc[nH]c12)c1cc2cccc(Cl)c2c(=O)n1-c1ccccc1, for which the viability, T/C was 95.8%.

Turning to `CC1(C)CCC(Nc2ncc(C(F)(F)F)c(-c3c[nH]c4c(P(C)(C)=O)c(C#N)ccc34)n2)CN1` (configuration not stated) + CC(Nc1ncnc2nc[nH]c12)c1cc2cccc(Cl)c2c(=O)n1-c1ccccc1, the viability, T/C is 50.5%.

Staying with this test, now noted: second compound 1 µM; first compound 0.316 µM; active compounds read low.
With `C#Cc1c(F)ccc2cc(O)cc(-c3ncc4c(N5CC6CCC(C5)N6)nc(OCC56CCCN5CC(F)C6)nc4c3F)c12` (configuration not stated) + CC(Nc1ncnc2nc[nH]c12)c1cc2cccc(Cl)c2c(=O)n1-c1ccccc1, the viability, T/C was 108%.

For `C=CC(=O)N1CCN(c2nc(=O)n(-c3c(C)ccnc3C(C)C)c3nc(-c4c(O)cccc4F)c(F)cc23)C(C)C1` (configuration not stated) + CC(Nc1ncnc2nc[nH]c12)c1cc2cccc(Cl)c2c(=O)n1-c1ccccc1, the viability, T/C was 87.8%.

With `CC(Cn1ccc(-c2ccc(C#N)c(Cl)c2)n1)NC(=O)c1cc(C(C)O)[nH]n1` (configuration not stated) + CC(Nc1ncnc2nc[nH]c12)c1cc2cccc(Cl)c2c(=O)n1-c1ccccc1, the viability, T/C was 81.4%.

As for `CC1(C)CCC(Nc2ncc(C(F)(F)F)c(-c3c[nH]c4c(P(C)(C)=O)c(C#N)ccc34)n2)CN1` (configuration not stated) + CC(Nc1ncnc2nc[nH]c12)c1cc2cccc(Cl)c2c(=O)n1-c1ccccc1, the viability, T/C was 51%.

The test is the same for the next values; noted with them: second compound 1 µM; first compound 1 µM; active compounds read low.
With `C#Cc1c(F)ccc2cc(O)cc(-c3ncc4c(N5CC6CCC(C5)N6)nc(OCC56CCCN5CC(F)C6)nc4c3F)c12` (configuration not stated) + CC(Nc1ncnc2nc[nH]c12)c1cc2cccc(Cl)c2c(=O)n1-c1ccccc1, the viability, T/C was 95.5%.

As to `C=CC(=O)N1CCN(c2nc(=O)n(-c3c(C)ccnc3C(C)C)c3nc(-c4c(O)cccc4F)c(F)cc23)C(C)C1` (configuration not stated) + CC(Nc1ncnc2nc[nH]c12)c1cc2cccc(Cl)c2c(=O)n1-c1ccccc1, the viability, T/C was 88.4%.

For `CC(Cn1ccc(-c2ccc(C#N)c(Cl)c2)n1)NC(=O)c1cc(C(C)O)[nH]n1` (configuration not stated) + CC(Nc1ncnc2nc[nH]c12)c1cc2cccc(Cl)c2c(=O)n1-c1ccccc1, the viability, T/C was 110%.

Turning to `CC1(C)CCC(Nc2ncc(C(F)(F)F)c(-c3c[nH]c4c(P(C)(C)=O)c(C#N)ccc34)n2)CN1` (configuration not stated) + CC(Nc1ncnc2nc[nH]c12)c1cc2cccc(Cl)c2c(=O)n1-c1ccccc1, the viability, T/C is 28.2%.

Still in this test, the particulars now being: second compound 1 µM; first compound 3.16 µM; active compounds read low.
For `C#Cc1c(F)ccc2cc(O)cc(-c3ncc4c(N5CC6CCC(C5)N6)nc(OCC56CCCN5CC(F)C6)nc4c3F)c12` (configuration not stated) + CC(Nc1ncnc2nc[nH]c12)c1cc2cccc(Cl)c2c(=O)n1-c1ccccc1, the viability, T/C is 109%.

In the case of `C=CC(=O)N1CCN(c2nc(=O)n(-c3c(C)ccnc3C(C)C)c3nc(-c4c(O)cccc4F)c(F)cc23)C(C)C1` (configuration not stated) + CC(Nc1ncnc2nc[nH]c12)c1cc2cccc(Cl)c2c(=O)n1-c1ccccc1, the viability, T/C is 92.9%.

Take `CC(Cn1ccc(-c2ccc(C#N)c(Cl)c2)n1)NC(=O)c1cc(C(C)O)[nH]n1` (configuration not stated) + CC(Nc1ncnc2nc[nH]c12)c1cc2cccc(Cl)c2c(=O)n1-c1ccccc1: the viability, T/C is 92.9%.

With `CC1(C)CCC(Nc2ncc(C(F)(F)F)c(-c3c[nH]c4c(P(C)(C)=O)c(C#N)ccc34)n2)CN1` (configuration not stated) + CC(Nc1ncnc2nc[nH]c12)c1cc2cccc(Cl)c2c(=O)n1-c1ccccc1, the viability, T/C was 22.7%.

Staying with this test, now noted: second compound 1 µM; first compound 10 µM; active compounds read low.
Turning to `C#Cc1c(F)ccc2cc(O)cc(-c3ncc4c(N5CC6CCC(C5)N6)nc(OCC56CCCN5CC(F)C6)nc4c3F)c12` (configuration not stated) + CC(Nc1ncnc2nc[nH]c12)c1cc2cccc(Cl)c2c(=O)n1-c1ccccc1, the viability, T/C is 90.6%.

For `C=CC(=O)N1CCN(c2nc(=O)n(-c3c(C)ccnc3C(C)C)c3nc(-c4c(O)cccc4F)c(F)cc23)C(C)C1` (configuration not stated) + CC(Nc1ncnc2nc[nH]c12)c1cc2cccc(Cl)c2c(=O)n1-c1ccccc1, the viability, T/C is 93.3%.

Consider `CC(Cn1ccc(-c2ccc(C#N)c(Cl)c2)n1)NC(=O)c1cc(C(C)O)[nH]n1` (configuration not stated) + CC(Nc1ncnc2nc[nH]c12)c1cc2cccc(Cl)c2c(=O)n1-c1ccccc1, for which the viability, T/C was 90.6%.

On to `CC1(C)CCC(Nc2ncc(C(F)(F)F)c(-c3c[nH]c4c(P(C)(C)=O)c(C#N)ccc34)n2)CN1` (configuration not stated) + CC(Nc1ncnc2nc[nH]c12)c1cc2cccc(Cl)c2c(=O)n1-c1ccccc1, for which the viability, T/C is 22.6%.

Staying with this test, now noted: second compound 3.16 µM; first compound 0.0316 µM; active compounds read low.
For the molecule `C#Cc1c(F)ccc2cc(O)cc(-c3ncc4c(N5CC6CCC(C5)N6)nc(OCC56CCCN5CC(F)C6)nc4c3F)c12` (configuration not stated) + CC(Nc1ncnc2nc[nH]c12)c1cc2cccc(Cl)c2c(=O)n1-c1ccccc1, the viability, T/C is 110%.

Consider `C=CC(=O)N1CCN(c2nc(=O)n(-c3c(C)ccnc3C(C)C)c3nc(-c4c(O)cccc4F)c(F)cc23)C(C)C1` (configuration not stated) + CC(Nc1ncnc2nc[nH]c12)c1cc2cccc(Cl)c2c(=O)n1-c1ccccc1, for which the viability, T/C was 91.3%.

For the molecule `CC(Cn1ccc(-c2ccc(C#N)c(Cl)c2)n1)NC(=O)c1cc(C(C)O)[nH]n1` (configuration not stated) + CC(Nc1ncnc2nc[nH]c12)c1cc2cccc(Cl)c2c(=O)n1-c1ccccc1, the viability, T/C was 91.6%.

Turning to `CC1(C)CCC(Nc2ncc(C(F)(F)F)c(-c3c[nH]c4c(P(C)(C)=O)c(C#N)ccc34)n2)CN1` (configuration not stated) + CC(Nc1ncnc2nc[nH]c12)c1cc2cccc(Cl)c2c(=O)n1-c1ccccc1, the viability, T/C was 75.9%.

The test is the same for the next values; noted with them: second compound 3.16 µM; first compound 0.1 µM; active compounds read low.
For `C#Cc1c(F)ccc2cc(O)cc(-c3ncc4c(N5CC6CCC(C5)N6)nc(OCC56CCCN5CC(F)C6)nc4c3F)c12` (configuration not stated) + CC(Nc1ncnc2nc[nH]c12)c1cc2cccc(Cl)c2c(=O)n1-c1ccccc1, the viability, T/C is 94.2%.

As for `C=CC(=O)N1CCN(c2nc(=O)n(-c3c(C)ccnc3C(C)C)c3nc(-c4c(O)cccc4F)c(F)cc23)C(C)C1` (configuration not stated) + CC(Nc1ncnc2nc[nH]c12)c1cc2cccc(Cl)c2c(=O)n1-c1ccccc1, the viability, T/C is 90.9%.
